We go through one compound from US20180325947A1, “USE OF MAPK INHIBITORS TO REDUCE LOSS OF HEMATOPOIETIC STEM CELLS DURING EX VIVO CULTURE AND/OR GENETIC MANIPULATION” (Children's Hospital Medical Center, priority 2015, published 2018).

The test system of data set [1] is human CD45+ cell engraftment in NSG mice. Briefly: primary transplant (1T) of cultured hCD34+ cells into NSG mice, hCD45+ engraftment in bone marrow. Type of data set: in vivo. To be noted: for hCD45+ cell engraftment in bone marrow of 1T mice: 24 weeks after primary transplant of cultured hCD34+ cells with/without inhibitor. As to the method:
(§1) FIG. 2. A preclinical model for studying adult human HSC ex vivo manipulation and gene transfer and its effect on LTRP. (Panel A) Freshly isolated or thawed mobilized peripheral blood (MPB) derived CD34+ cells were utilized for the study. Two different protocols were utilized for the study where lentivirus (LV) or γ-Retrovirus (RV) mediated gene transfer was performed at indicated time points. 0 h, 18-24 h, 36-42 h, and 72-96 h indicates the total amount of time where cells were exposed in the ex vivo culture after CD34 isolation before injection into NSG mice. (Panel B) After indicated time in culture and transduction, 1 million CD34+ starting equivalent cells were transplanted per NSG mouse after TBI intravenously (primary transplant=1T). Primary human engraftment and multi-lineage reconstitution was analyzed in mice at indicated time periods after bone marrow harvest at 6 and 12 weeks (wks) from left and right femurs, and after sacrifice at 24 wks, from all bones. A portion of cells were analyzed for FACS and the rest were depleted of mouse CD45+ cells and transplanted one to one, into secondary mice (secondary transplant=2T).
Panel A: hCD45^+ cell engraftment in bone marrow of 1T mice at 24 weeks following transplant of cultured hCD34^+ cells with/without p38 inhibitor Birb796. Panel B: Number of 2T mice engrafted (>0.01% hCD45^+ cells in BM) are shown above the middle bar and those non-engrafted below.
A xenograft model was developed to study hHSC engraftment. In the xenograft model of adult human HSC, CD34^+ cells were derived and isolated from fresh MPB. The fresh CD34^+ cells were either directly transplanted into immunocompromised NSG mice or cultured with human cytokines and then transduced either with lentivirus or retrovirus. […] The multipotential human hematopoietic progeny (hCD45^+) following huCD34^+ transplant in NSG mice were then measured to confirm that the model human HSC engraftment from adult (mobilized peripheral blood) CD34^+ HSC/P that mimics the results observed in gene therapy clinical trials. […]

Data set [2] relates to human HSC long term repopulating potential. In words: secondary transplant (2T) in NSG mice, long term repopulating potential (LTRP). It is filed as in vivo. To be noted: for secondary engraftment potential / long term repopulating potential (LTRP): 2T NSG mice, 6 weeks, inhibitor present during ex vivo culture, all time points; for number of 2T mice with human cell engraftment (>0.01% hCD45+ cells in BM): 6 weeks post-secondary transplant. On the procedure: as §1
Panel B: Number of 2T mice engrafted (>0.01% hCD45^+ cells in BM) are shown above the middle bar and those non-engrafted below.
Human MPB derived CD34^+ cells either fresh or thawed were cultured and transduced with lentivirus (LV) or retrovirus (RV) expressing GFP for the indicated time points. Cells were harvested and phospho-p38MAPK was detected by flow cytometry. Panel A: Representative histogram plot of p-p38 (number represents mean fluorescence intensity (MFI). Panel B: Fold change of p-p38 MAPK MFI (±SEM) in human CD34^+ 38^− 90^+ 45RA^− 49f^+ cells with or without p38 inhibitor (p38i). Panel C: Human CD45^+ engraftment in NSG mice with (striped bars) or without p38 inhibitor (solid bars) after 24 weeks of primary transplant. Panel D: Human engraftment in NSG mice with or without p38i after 6 weeks of secondary transplant. Engrafted mice (>0.01% CD45^+ cells in the whole bone marrow) over total mice transplanted is shown as percentage. Human CD33^+ myeloid (Panels E and F), CD19^+ B-Lymphoid (Panels G and H) and CD34^+ hematopoietic stem/progenitor cells (HSPCs) (Panels I and J) re-constitution with or without p38i (Panels E, G, and I): GFP^− untransduced; (Panels F, H & J): GFP^+ transduced in primary transplanted mice 24 weeks post transplantation are shown. Data expressed as mean±SEM from 5 independent experiments (n=12-21 mice per group). Statistics: Student's t test, *p<0.05, **p<0.01, ***p<0.001.
Engrafted mice (>0.01% CD45^+ cells in the whole bone marrow) are shown above the middle bar, engrafted/Total mice number is shown on the side. […] Data expressed as mean±SEM from 5 independent experiments (n=7-29 mice per group). […]

In data set [3] the test system is human CD34+38-90+ cells. In words: apoptosis, annexin V+ CD34+38-90+ cells. The conditions noted are these: with or without p38i. Type of data set: cell-based. On the procedure:
Human CD34^+ cells were cultured and transduced as described in FIG. 13, panel A. Harvested cells were stained with trypan blue for viability, total CD34+ cell number (Panel A), fold change in percent human CD34^+ 38^− 90^+ 45RA^− 49f^+ (HSCs) (Panel B), percent annexin V^+ (apoptotic) CD34^+38^− 90^+ cells (Panel C), fold change in transduction efficiency (based on GFP marker percentage) over non-treated CD34^+38^− 90^+ cells (Panel D), fold change in MitoSOX MFI in CD34^+38^− 90^+ cells are shown (Panel E). Data represents mean±SEM. Statistics: Student's t test, […], *p<0.05, **p<0.01, ***p<0.001.

Structures are written as SMILES. Entries after “also recorded” stand apart in the source; their conditions may differ.

Consider `Cc1ccc(-n2nc(C(C)(C)C)cc2NC(=O)Nc2ccc(OCCN3CCOCC3)c3ccccc23)cc1` [BIRB-796, 1-[5-tert-butyl-2-(4-methylphenyl)pyrazol-3-yl]-3-[4-(2-morpholin-4-ylethoxy)naphthalen-1-yl]urea], for which the “human CD45+ cell engraftment in NSG BM, 1T” value in data set [1] (24 weeks after 1T, 72-96 h LV and RV groups) is recorded as “slightly improved”. In addition, the “hCD45+ cell engraftment in bone marrow of 1T mice” value was “not affecting” in data set [1] and “significantly increases” in data set [1] (listed as Birb796). For the same compound, the “secondary engraftment potential / long term repopulating potential (LTRP)” value in data set [2] was “retains”; in data set [2] (listed as p38i), “retain; also recorded: restores; also recorded: rescues”. For the same compound, the “number of 2T mice with human cell engraftment (>0.01% hCD45+ cells in BM)” value was “significantly increase” in data set [2] and “increases” in data set [2] (listed as Birb796). Further, in data set [3], the “apoptosis in CD34+38-90+ population” value was “no difference”.
